Assay results published in patent publication US20190352268A1, “CANNABINOID RECEPTOR MEDIATING COMPOUNDS” (The USA, as represented by the Secretary, Department of …, priority 2015, published 2019).
Read-outs that look alike come from different tables or passages of the source.

Assays:
DIO mice = experiment: Mice with diet-induced obesity (DIO), 14 days oral treatment; format: in vivo, mouse
Description: Data represent mean±SEM from 5-6 mice per group.*(P<0.05), indicate significant difference from […] diet control. ^# indicates significant treatment effect (P<0.05) relative to vehicle-treated HFD group.
Data represent mean±SEM from 5-6 mice per group. *(P<0.05), indicate significant difference from (STD) diet control. ^# indicates significant treatment effect (P<0.05) relative to vehicle-treated HFD group. […] Glucose tolerance and insulin sensitivity were determined on the last 2 days of treatment, using i.p. glucose tolerance and insulin sensitivity tests.

ZDF rats = experiment: Zucker diabetic fatty (ZDF) rat model of type 2 diabetes; format: in vivo; settings: 10 mg/kg/day oral gavage, 7 days
Excerpt: The Zucker diabetic fatty (ZDF) rat is a commonly used animal model of type 2 diabetes with progressive β-cell loss resulting in extreme hyperglycemia. […] (Jourdan et al, Nature Med 2013, 19-(9):1132-1140).

[1] = system: CCl4-induced liver fibrosis; experiment: CCl4-induced liver fibrosis model in mice; format: in vivo, mouse; settings: 10 mg/kg/day orally for 4 weeks
Description: CCl4-induced liver fibrosis was generated by intraperitoneal injection of CCL4 (1 ml/kg, diluted 1:10 corn oil), twice weekly for 8 weeks. […] Data represent mean±SEM from 7-8 mice per group.*P<0.05 relative to control. ^#indicates significant treatment effect (P<0.05) relative to CCl4-treated vehicle group.
Fibrosis results from excessive extracellular matrix deposition by myofibroblasts accompanying chronic inflammation and wound healing, and is a key pathogenic process in many organs, including kidneys, lung, and liver.

[2] = In vivo metabolism in mouse, plasma LC-MS/MS; settings: 1 h after oral administration at 10 mg/kg in mice
CB1 = CB1 (Mus musculus, UniProt P47746)
recombinant human AMPK = experiment: Recombinant AMPK activity assay (Cyclex kit); format: biochemical
Excerpt: Guanides and biguanides, such as metformin, are effective as antidiabetic agents linked to their AMPK activating properties (Hardie et al., Chem Biol. 2012, […]; 1222-1236). Guanidine-containing analogs in certain embodiments were screened for activation of recombinant human AMPK, using an assay kit (Cyclex, Nagona, Japan), as illustrated in FIG. 8.
Activators of AMP-activated protein kinase (AMPK), such as guanidines of biguanides such as metformin are useful for the treatment of diabetes owing to their AMPK activating property (Hardie, et al., Chem & Biol 2012, 19(10); 1222-1236). Guanidine analogues of certain embodiments were screened for AMPK activation by using a recombinant AMPK activity assay.

liver fibrosis = settings: Teixeira-Clerc, Nature Med 2006; cited from earlier work
[3] = DIO mice, 10 mg/kg/day, 14 days

Sequence of CB1 (P47746 whole entry): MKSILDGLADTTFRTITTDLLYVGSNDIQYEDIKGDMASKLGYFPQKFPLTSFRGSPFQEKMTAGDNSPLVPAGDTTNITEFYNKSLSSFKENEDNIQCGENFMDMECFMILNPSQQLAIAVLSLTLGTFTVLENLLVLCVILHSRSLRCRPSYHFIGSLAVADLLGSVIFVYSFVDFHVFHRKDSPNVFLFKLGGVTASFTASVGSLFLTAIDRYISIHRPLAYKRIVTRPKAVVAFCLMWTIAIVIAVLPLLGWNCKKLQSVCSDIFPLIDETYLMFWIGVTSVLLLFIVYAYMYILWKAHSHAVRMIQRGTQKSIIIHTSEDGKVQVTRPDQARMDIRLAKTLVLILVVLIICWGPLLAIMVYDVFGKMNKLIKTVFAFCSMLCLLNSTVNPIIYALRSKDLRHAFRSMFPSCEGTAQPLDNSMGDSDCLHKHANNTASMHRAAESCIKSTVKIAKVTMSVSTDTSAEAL

Q: With C/C(N)=N\C(=N/S(=O)(=O)c1ccc(Cl)cc1)N1CC(c2ccccc2)C(c2ccc(Cl)cc2)=N1 (racemic) [Compound 2, rac-N-(1-aminoethylidene)-3-(4-chlorophenyl)-N-((4-chlorophenyl)sulfonyl)-4-phenyl-4,5-dihydro-1H-pyrazole-1-carboximidamide] as the molecule, how does the HFD-induced glucose intolerance (DIO mice; [3]) read?
A: Its HFD-induced glucose intolerance is “abrogated”.

Q: And the body weight (DIO mice; [3])?
A: Its body weight is “reduced”.

Q: What about the food intake (DIO mice; [3]) of the same molecule?
A: Its food intake is “reduced”.

Q: What about the “hepatic TG” value (DIO mice; [3]) of the same molecule?
A: Its value is “reduced”.

Q: What about the hyperinsulinemia (DIO mice; [3]) of the same molecule?
A: Its hyperinsulinemia is “abrogated”.

Q: And the hyperleptinemia (DIO mice; [3])?
A: Its hyperleptinemia is “reduced”.

Q: What about the insulin resistance (DIO mice; [3]) of the same molecule?
A: The insulin resistance was “abrogated”.

Q: What about the “insulin resistance (insulin sensitivity test)” value (DIO mice; DIO mice, last 2 days of treatment) of the same molecule?
A: The value was “nearly completely normalized”.

Q: And the “glucose intolerance (i.p. glucose tolerance test)” value (DIO mice; DIO mice, last 2 days of treatment, i.p. glucose load 1.5 g/kg)?
A: The value was “nearly completely normalized”.

Q: What about the “In vivo Comments” value (DIO mice; mouse, in vivo) of the same molecule?
A: The value was “-anti- diabetic -anti- obesity”.

Q: What about the plasma c-peptide (ZDF rats) of the same molecule?
A: The plasma c-peptide was “prevented”.

Q: What about the plasma insulin (ZDF rats) of the same molecule?
A: Its plasma insulin is “prevented”.

Q: What about the blood glucose (ZDF rats; 10 mg/kg/day) of the same molecule?
A: The blood glucose was “prevented the progressive increase”.

Q: And the “liver fibrosis / collagen deposition by Sirius Red and Masson's trichrome staining” value [1]?
A: The value was “more effective than rimonabant”.

Q: And the “α-SMA, Procollagen-1 and Fibronectin-1 mRNA” value [1]?
A: The value was “more effective than rimonabant”.

Q: And the “CCl4-induced increase in immunoreactive iNOS” value ([1]; liver)?
A: Its value is “attenuated”.

Q: What about the “in vivo metabolism, metabolite generation in plasma” value [2] of the same molecule?
A: Its value is “underwent in vivo metabolism to liberate the amidine moiety and a metabolite”.

Q: And the “Functional GTPγS binding CB1 Emax” value (CB1)?
A: Its value is -20 % basal.

Q: Which results are given for Cc1c(C(=O)NN2CCCCC2)nn(-c2ccc(Cl)cc2Cl)c1-c1ccc(Cl)cc1 [rimonabant]?
A: effect on AMPK activity (recombinant human AMPK): no effect; effect on AMPK activity (recombinant human AMPK; 1 μM): no effect; anti-fibrotic effect (liver fibrosis): anti-fibrotic effect
